Measurements reported in ChEMBL document CHEMBL4425114, “Development of Novel Alkoxyisoxazoles as Sigma-1 Receptor Antagonists with Antinociceptive Efficacy” (J Med Chem, 2016).
The source made the active and inactive calls. The rule behind the calls is not given here.

Tests used:
[1] = Toxicity in Kun Ming mouse assessed as decrease in rotarod latency at 40 and 80 mg/kg, ip measured after 60 to 120 mins by rotarod test relative to vehicle-treated control; assay type: organism-based; conditions: in vivo
[2] = Half life in Kun Ming mouse plasma at 40 mg/kg, po by LC-MS/MS analysis; assay type: ADME, organism-based
[3] = Cmax in Kun Ming mouse brain at 40 mg/kg, po by LC-MS/MS analysis; assay type: ADME, organism-based; parameters: dose 40 mg/kg, route oral
[4] = Ratio of AUC (0 to infinity) in brain to plasma of Kun Ming mouse at 40 mg/kg, po; assay type: ADME, organism-based; conditions: read-out: Ratio AUC
[5] = target: Sigma non-opioid intracellular receptor 1 (Cavia porcellus) (UniProt Q60492); assay: Binding affinity to sigma1 receptor form guinea pig brain membrane in presence of phenytoin […]
[6] = target: Sodium-dependent noradrenaline transporter (Homo sapiens, UniProt P23975); assay: Displacement of [3H]nisoxetine from human NET expressed in HEK293 cells measured after 30 mins; assay type: cell-based
Mus musculus [7] = assay: Antinociceptive activity in Kun Ming mouse assessed as reduction in paw licking and flinching time at 40 mg/kg, ip administered 15 mins prior to formalin challenge measured after 0 to 10 mins post formalin dosing relative to vehicle-treated control; assay type: functional, organism-based
[8] = target: T1, Sodium-dependent dopamine transporter (Homo sapiens, UniProt Q01959); assay: Displacement of [3H]-WIN35428 from human DAT expressed in HEK293 cells at 10 uM measured after 30 mins; assay type: cell-based
[9] = AUMC (0 to infinity) in Kun Ming mouse plasma at 40 mg/kg, po by LC-MS/MS analysis; assay type: ADME, organism-based; conditions: in vivo
[10] = Elimination rate constant in Kun Ming mouse brain at 40 mg/kg, po by LC-MS/MS analysis; assay type: ADME, organism-based
[11] = Ratio of Cmax in brain to plasma of Kun Ming mouse at 40 mg/kg, po; assay type: ADME, organism-based
[12] = AUMC (0 to 8 hrs) in Kun Ming mouse brain at 40 mg/kg, po by LC-MS/MS analysis; assay type: ADME, organism-based; conditions: in vivo
[13] = AUC (0 to infinity) in Kun Ming mouse brain at 40 mg/kg, po by LC-MS/MS analysis; assay type: ADME, organism-based; parameters: dose 40 mg/kg, route oral, time infinity; conditions: in vivo
Mus musculus [14] = assay: Antinociceptive activity in Kun Ming mouse assessed as reduction in paw licking and flinching time at 40 mg/kg, ip administered 15 mins prior to formalin challenge measured after 11 to 45 mins post formalin dosing relative to vehicle-treated control; assay type: functional, organism-based
[15] = target: T1, Sodium-dependent dopamine transporter
Description: Displacement of [3H]-WIN35428 from human DAT expressed in HEK293 cells measured after 30 mins

[16] = target: T2, Sigma intracellular receptor 2 (Rattus norvegicus, UniProt Q5U3Y7); assay: Displacement of [3H]DTG from rat brain sigma2 receptor by PDSP assay
T2 sequence (Q5U3Y7 whole entry): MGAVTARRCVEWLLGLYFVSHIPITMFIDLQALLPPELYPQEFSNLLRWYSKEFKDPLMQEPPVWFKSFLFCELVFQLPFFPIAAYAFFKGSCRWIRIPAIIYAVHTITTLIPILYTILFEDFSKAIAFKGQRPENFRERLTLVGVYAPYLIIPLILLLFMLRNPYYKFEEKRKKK

[17] = Cmax in Kun Ming mouse plasma at 40 mg/kg, po by LC-MS/MS analysis; assay type: ADME, organism-based; parameters: dose 40 mg/kg, route oral
[18] = Permeability of the compound after 18 hrs by PAMPA assay; assay type: ADME; conditions: read-out: permeability
[19] = AUC (0 to 8 hrs) in Kun Ming mouse brain at 40 mg/kg, po by LC-MS/MS analysis; assay type: ADME, organism-based; parameters: time < 8 hr, dose 40 mg/kg, route oral; conditions: in vivo
[20] = Tmax in Kun Ming mouse brain at 40 mg/kg, po by LC-MS/MS analysis; assay type: ADME, organism-based
[21] = Mean residence time in Kun Ming mouse plasma at 40 mg/kg, po by LC-MS/MS analysis; assay type: ADME, organism-based
[22] = Ratio of AUC (0 to 8 hrs) in brain to plasma of Kun Ming mouse at 40 mg/kg, po; assay type: ADME, organism-based; conditions: read-out: Ratio AUC
[23] = AUMC (0 to 8 hrs) in Kun Ming mouse plasma at 40 mg/kg, po by LC-MS/MS analysis; assay type: ADME, organism-based; conditions: in vivo
[24] = Tmax in Kun Ming mouse plasma at 40 mg/kg, po by LC-MS/MS analysis; assay type: ADME, organism-based
[25] = AUC (0 to 8 hrs) in Kun Ming mouse plasma at 40 mg/kg, po by LC-MS/MS analysis; assay type: ADME, organism-based; parameters: time < 8 hr, dose 40 mg/kg, route oral
[26] = Elimination rate constant in Kun Ming mouse plasma at 40 mg/kg, po by LC-MS/MS analysis; assay type: ADME, organism-based
[27] = Mean residence time in Kun Ming mouse brain at 40 mg/kg, po by LC-MS/MS analysis; assay type: ADME, organism-based
[28] = AUC (0 to infinity) in Kun Ming mouse plasma at 40 mg/kg, po by LC-MS/MS analysis; assay type: ADME, organism-based; parameters: dose 40 mg/kg, route oral, time infinity
[29] = AUMC (0 to infinity) in Kun Ming mouse brain at 40 mg/kg, po by LC-MS/MS analysis; assay type: ADME, organism-based; conditions: in vivo
[30] = target: Sigma non-opioid intracellular receptor 1 (Rattus norvegicus, UniProt Q9R0C9); assay: Displacement of [3H]-pentazocine from rat brain sigma1 receptor by PDSP assay
[31] = target: T3, Sodium-dependent serotonin transporter (Homo sapiens, UniProt P31645); conditions: HEK293, at 10 µM
Target sequence in this assay (P31645 whole entry, looked up): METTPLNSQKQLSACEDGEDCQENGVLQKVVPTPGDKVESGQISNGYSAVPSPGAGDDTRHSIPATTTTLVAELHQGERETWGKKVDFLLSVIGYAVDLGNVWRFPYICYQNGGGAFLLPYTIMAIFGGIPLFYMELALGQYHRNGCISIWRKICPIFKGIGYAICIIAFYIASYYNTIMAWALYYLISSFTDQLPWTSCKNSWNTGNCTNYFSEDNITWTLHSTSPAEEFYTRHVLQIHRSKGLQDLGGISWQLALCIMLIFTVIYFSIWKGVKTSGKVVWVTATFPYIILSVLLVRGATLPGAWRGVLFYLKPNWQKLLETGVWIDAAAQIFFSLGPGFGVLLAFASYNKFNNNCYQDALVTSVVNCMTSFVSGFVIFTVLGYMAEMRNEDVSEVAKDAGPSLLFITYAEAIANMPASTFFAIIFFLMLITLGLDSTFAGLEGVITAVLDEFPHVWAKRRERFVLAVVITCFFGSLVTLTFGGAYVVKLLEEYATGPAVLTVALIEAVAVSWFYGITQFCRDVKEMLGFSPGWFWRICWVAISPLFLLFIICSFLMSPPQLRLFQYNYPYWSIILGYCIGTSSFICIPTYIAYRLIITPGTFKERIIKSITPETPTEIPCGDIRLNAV
Description: Displacement of [3H]citalopram from human SERT expressed in HEK293 cells at 10 uM measured after 30 mins

[32] = target: Sigma non-opioid intracellular receptor 1 (Rattus norvegicus) (UniProt Q9R0C9); assay: Displacement of [3H]-pentazocine from rat brain sigma1 receptor at 10 uM by PDSP assay
[33] = target: T3, Sodium-dependent serotonin transporter; assay: biochemical; assay type: cell-based, HEK293
Target sequence in this assay (P31645 whole entry): as the sequence (P31645 whole entry, looked up) above
Description: Displacement of [3H]citalopram from human SERT expressed in HEK293 cells measured after 30 mins

Mus musculus [34] = assay: Antinociceptive activity in Kun Ming mouse assessed as reduction in paw licking and flinching time at 80 mg/kg, ip administered 15 mins prior to formalin challenge measured up to 45 mins post formalin dosing relative to vehicle-treated control; assay type: functional, organism-based
[35] = Half life in Kun Ming mouse brain at 40 mg/kg, po by LC-MS/MS analysis; assay type: ADME, organism-based

T1 sequence (Q01959 whole entry): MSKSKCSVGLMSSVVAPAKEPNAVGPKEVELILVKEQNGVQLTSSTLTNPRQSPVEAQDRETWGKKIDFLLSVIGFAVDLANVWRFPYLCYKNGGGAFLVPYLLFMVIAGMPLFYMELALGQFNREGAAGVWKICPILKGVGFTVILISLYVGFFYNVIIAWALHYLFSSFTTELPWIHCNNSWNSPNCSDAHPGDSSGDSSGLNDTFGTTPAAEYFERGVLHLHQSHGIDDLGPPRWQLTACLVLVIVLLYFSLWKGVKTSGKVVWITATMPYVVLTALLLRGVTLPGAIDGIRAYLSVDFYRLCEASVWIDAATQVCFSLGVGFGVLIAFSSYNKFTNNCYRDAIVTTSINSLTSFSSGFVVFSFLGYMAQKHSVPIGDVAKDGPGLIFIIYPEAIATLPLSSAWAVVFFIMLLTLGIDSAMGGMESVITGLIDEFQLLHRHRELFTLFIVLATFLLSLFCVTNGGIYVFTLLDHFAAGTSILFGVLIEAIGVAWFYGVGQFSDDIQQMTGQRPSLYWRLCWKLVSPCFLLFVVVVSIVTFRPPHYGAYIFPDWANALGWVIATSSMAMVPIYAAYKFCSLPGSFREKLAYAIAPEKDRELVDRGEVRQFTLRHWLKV
Chain of Sodium-dependent noradrenaline transporter (P23975 whole entry): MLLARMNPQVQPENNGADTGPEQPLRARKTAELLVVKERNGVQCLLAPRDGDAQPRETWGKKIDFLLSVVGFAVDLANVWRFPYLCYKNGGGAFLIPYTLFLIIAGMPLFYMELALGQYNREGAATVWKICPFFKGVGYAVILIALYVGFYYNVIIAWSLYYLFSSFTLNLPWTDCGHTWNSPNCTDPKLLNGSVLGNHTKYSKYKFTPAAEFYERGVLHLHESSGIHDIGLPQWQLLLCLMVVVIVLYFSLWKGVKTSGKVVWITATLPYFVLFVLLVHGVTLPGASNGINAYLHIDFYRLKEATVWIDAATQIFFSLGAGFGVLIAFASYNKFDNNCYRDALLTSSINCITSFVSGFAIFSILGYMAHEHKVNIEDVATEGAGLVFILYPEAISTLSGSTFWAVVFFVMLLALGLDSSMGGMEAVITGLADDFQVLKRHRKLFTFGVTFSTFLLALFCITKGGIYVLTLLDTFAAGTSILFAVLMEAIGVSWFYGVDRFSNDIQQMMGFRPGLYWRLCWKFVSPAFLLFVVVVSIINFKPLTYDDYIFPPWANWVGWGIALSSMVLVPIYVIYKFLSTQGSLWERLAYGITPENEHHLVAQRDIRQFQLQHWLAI
Chain of Sigma non-opioid intracellular receptor 1 (Cavia porcellus) (Q60492 whole entry): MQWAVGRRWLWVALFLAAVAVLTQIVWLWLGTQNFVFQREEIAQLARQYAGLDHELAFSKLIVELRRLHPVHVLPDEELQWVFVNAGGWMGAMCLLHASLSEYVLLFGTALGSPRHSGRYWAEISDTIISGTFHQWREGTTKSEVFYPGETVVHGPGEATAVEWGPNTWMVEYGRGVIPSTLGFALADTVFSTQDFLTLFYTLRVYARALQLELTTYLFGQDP
Chain of Sigma non-opioid intracellular receptor 1 (Q9R0C9 whole entry): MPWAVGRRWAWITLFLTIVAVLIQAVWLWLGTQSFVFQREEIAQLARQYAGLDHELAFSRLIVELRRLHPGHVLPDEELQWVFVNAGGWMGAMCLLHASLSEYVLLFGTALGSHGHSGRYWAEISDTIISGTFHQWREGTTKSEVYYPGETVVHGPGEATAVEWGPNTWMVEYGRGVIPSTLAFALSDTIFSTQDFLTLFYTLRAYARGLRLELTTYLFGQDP
Chain of Sigma non-opioid intracellular receptor 1 (Rattus norvegicus) (Q9R0C9 whole entry): as above

CN(CCOc1cc(COc2ccccc2)on1)CC1CC1.Cl
Activity [1]: Non-Toxic | half-life [2]: 2.64 h | Cmax [3]: 395 ng/g | Kp [4]: 3.6 | Activity [5]: inactive | Ki [6]: > 10 µM | Activity (Mus musculus [7]): inactive | inhibition [8]: < 50% | AUMC [9]: 157 hr.hr.ng/ml | k el [10]: 7.67e-05 s⁻¹ | Kp [11]: 2 | AUMC [12]: 578 hr.hr.ng/g | AUC [13]: 403 ng·h/g | Activity (Mus musculus [14]): Active | Ki [15]: > 10 µM | Ki [16]: 0.225 µM | Cmax [17]: 0.193 µg/mL | Papp at 18 h [18]: 20 to 40 nm/s | AUC [19]: 373 ng·h/g | Tmax [20]: 0.167 h | MRT [21]: 1.39 h | Kp [22]: 3.6 | AUMC [23]: 91.5 hr.hr.ng/ml | Tmax [24]: 0.167 h | AUC(0-t) at 8 h [25]: 0.108 µg·h/mL | k el [26]: 7.31e-05 s⁻¹ | MRT [27]: 2.32 h | AUC(0-inf) [28]: 0.113 µg·h/mL | AUMC [29]: 935 hr.hr.ng/g | Ki [30]: 0.0008 µM | inhibition [31]: < 50% | inhibition [32]: > 50% | Ki [33]: > 10 µM | Activity (Mus musculus [34]): Active | half-life [35]: 2.52 h
